Experimental findings from publication PMC7444660 (ACS chemical neuroscience, 2020) are described below.

The target in data set [1] is PDE4D (Homo sapiens, UniProt Q08499). The data set can be described thus: PET imaging in human brain. The format is in vivo. The settings on record: po, read-out: occupancy of the target enzyme.
Data set [2] relates to PDE4D. The experiment in a line: PET imaging in monkey brain, baseline and preblock. The format is in vivo, rhesus monkeys (Macaca mulatta).
For another data set, the target named is PDE4B1 (S133D) (Homo sapiens, UniProt Q07343, S133D/S659A/S661A). The data set can be described thus: PDE4 enzyme inhibition assay, counter-screen. The format is biochemical.
Sequence of PDE4B1 (S133D) (Q07343 whole entry S133D/S659A/S661A): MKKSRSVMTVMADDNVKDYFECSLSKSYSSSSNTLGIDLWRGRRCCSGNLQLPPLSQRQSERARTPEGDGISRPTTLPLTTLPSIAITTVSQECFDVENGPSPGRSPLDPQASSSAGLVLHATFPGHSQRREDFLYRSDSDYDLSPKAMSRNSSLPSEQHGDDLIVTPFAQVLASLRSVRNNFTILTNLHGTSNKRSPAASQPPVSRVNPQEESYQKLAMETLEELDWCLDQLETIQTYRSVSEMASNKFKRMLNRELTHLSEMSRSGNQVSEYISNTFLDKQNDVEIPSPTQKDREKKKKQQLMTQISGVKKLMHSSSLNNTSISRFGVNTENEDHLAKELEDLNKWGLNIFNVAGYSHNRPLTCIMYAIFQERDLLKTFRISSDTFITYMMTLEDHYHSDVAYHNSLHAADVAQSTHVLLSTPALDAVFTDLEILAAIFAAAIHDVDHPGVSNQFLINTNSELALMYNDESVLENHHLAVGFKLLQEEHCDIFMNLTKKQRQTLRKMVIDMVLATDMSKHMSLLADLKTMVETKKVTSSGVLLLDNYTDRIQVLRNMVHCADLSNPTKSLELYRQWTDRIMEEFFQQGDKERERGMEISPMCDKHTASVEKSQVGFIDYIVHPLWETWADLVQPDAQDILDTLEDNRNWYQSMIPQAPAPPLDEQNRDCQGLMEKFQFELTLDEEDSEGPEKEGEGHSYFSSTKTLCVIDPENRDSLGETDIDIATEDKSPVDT
A short description of data set [3]: Mouse iv cassette pharmacokinetics, brain uptake. The format is in vivo, CD1 mice. The settings on record: intravenous dosing; SUV = brain Cmax (ng/mL)/dose (mg/kg)/1000.
The nature of data set [4]: Radioligand lipophilicity. The format is physicochemical. The settings on record: n-octanol/sodium phosphate buffer, pH 7.4.
The next data set addresses Human PDE4D7* (S129D) (Homo sapiens, UniProt Q08499, S190D/S715A/S717A). The data set can be described thus: PDE4 enzyme inhibition assay.
The target in data set [5] is serotonin 5-HT2B receptor (Homo sapiens, UniProt P41595). The experiment in a line: NIMH Psychoactive Drug Screening Panel, hit. The format is binding.
Sequence of serotonin 5-HT2B receptor (P41595 whole entry): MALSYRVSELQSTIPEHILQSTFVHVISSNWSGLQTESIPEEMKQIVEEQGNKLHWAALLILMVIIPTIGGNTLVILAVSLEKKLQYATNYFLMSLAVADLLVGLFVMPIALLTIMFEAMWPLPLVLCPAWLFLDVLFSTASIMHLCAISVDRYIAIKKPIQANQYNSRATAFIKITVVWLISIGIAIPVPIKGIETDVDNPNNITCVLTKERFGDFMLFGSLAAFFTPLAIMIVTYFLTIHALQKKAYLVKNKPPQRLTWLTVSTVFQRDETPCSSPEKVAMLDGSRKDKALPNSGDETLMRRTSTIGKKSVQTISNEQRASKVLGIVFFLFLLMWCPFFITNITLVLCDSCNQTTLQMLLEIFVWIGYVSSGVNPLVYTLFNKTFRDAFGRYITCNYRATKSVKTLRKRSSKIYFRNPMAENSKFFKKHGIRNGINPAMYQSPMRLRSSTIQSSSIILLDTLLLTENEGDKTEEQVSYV
For data set [6], the system named is panel of GPCRs and other binding sites. The data set can be described thus: NIMH Psychoactive Drug Screening Panel.

Sequence of Human PDE4D7* (S129D) (Q08499 1-748 isoform Q08499-11 S129D/S654A/S656A): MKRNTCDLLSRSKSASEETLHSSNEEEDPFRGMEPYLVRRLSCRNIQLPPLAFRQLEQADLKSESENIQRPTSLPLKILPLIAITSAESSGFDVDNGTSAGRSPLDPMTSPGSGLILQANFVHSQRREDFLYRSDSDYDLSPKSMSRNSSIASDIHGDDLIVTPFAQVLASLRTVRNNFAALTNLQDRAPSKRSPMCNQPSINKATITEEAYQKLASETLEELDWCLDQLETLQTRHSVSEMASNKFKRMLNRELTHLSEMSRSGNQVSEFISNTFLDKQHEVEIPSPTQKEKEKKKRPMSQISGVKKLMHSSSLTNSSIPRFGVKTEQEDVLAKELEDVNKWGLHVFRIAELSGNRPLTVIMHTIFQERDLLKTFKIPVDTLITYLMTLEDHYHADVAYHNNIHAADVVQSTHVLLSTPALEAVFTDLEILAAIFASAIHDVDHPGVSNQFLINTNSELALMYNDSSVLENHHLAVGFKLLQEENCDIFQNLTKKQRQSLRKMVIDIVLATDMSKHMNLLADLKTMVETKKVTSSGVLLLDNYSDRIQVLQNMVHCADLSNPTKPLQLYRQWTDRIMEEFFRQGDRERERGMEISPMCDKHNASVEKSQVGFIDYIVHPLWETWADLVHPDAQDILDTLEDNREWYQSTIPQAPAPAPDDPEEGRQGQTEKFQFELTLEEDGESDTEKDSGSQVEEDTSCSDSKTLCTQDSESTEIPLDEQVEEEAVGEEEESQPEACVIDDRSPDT
Sequence of PDE4D (Homo sapiens, UniProt Q08499) (Q08499 307-809 limits assumed): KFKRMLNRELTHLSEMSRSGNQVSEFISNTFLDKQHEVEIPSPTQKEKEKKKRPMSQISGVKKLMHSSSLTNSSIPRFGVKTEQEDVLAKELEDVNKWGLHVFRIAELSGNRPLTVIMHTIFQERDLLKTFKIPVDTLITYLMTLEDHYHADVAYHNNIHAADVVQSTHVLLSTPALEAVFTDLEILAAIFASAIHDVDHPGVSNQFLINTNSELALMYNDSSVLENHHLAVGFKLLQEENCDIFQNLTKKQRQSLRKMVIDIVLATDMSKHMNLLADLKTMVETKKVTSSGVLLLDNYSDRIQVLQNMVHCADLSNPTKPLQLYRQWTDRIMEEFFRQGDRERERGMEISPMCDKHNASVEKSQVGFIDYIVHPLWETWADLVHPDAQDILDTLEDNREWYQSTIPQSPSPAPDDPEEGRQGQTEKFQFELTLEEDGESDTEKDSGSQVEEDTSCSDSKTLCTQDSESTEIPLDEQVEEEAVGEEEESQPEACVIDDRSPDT

Take `O=C(O)Cc1ccc(Cc2cc(-c3cccc(Cl)c3)nc(C(F)(F)F)c2)cc1` [BPN14770]: the receptor occupancy at 50 mg on PDE4D [1] is around 40%. For the same compound, the “PDE4D target occupancy (Lassen plot)” value in the data set on PDE4D [2] (radioligand [11C]T1650, blocking dose 3 mg/kg i.v.) was 63%.

For orientation: IC50 means the midpoint of a concentration-inhibition curve. One may read the logD as the decadic logarithm of the distribution of all forms, ionised or not, between an organic phase and buffer at a given pH. With `COc1ccc(Cc2ccncc2)nc1-c1cccc(Cl)c1` [Compound 3, 2-(3-chlorophenyl)-3-methoxy-6-[(pyridin-4-yl)methyl]pyridine], at PDE4B1 (S133D), the IC50 is 720 nM. For the same compound, in data set [3], the “SUV, brain uptake in mice” value is given as 0.94 SUV. The compound also had a log distribution coefficient (logD) in data set [4] of 3.45.

In the case of `Cn1cc(Cc2ccc(OC(F)F)c(-c3cccc(Cl)c3)n2)cn1` [Compound 4, 2-(3-chlorophenyl)-3-(difluoromethoxy)-6-[(1-methyl-1H-pyrazol-4-yl)methyl]pyridine], the 50% inhibitory concentration (IC50) is 0.5 nM at Human PDE4D7* (S129D) and 858 nM against PDE4B1 (S133D). In addition, the “SUV, brain uptake in mice” value in data set [3] worked out at 1.44 SUV. Also, the log distribution coefficient (logD) in data set [4] came out at 3.07.

On PDE4B1 (S133D), `COc1ccc(Cc2ccncc2)nc1-c1cccc([N+](=O)[O-])c1` [Compound 5, 3-methoxy-2-(3-nitrophenyl)-6-[(pyridin-4-yl)methyl]pyridine] showed an IC50 of 280 nM. Further, the “SUV, brain uptake in mice” value in data set [3] stood at 1.76 SUV. The compound also came in with a log distribution coefficient (logD) in data set [4] of 3.38.

With `COc1ccc(Cc2cn[nH]c2)nc1-c1cccc([N+](=O)[O-])c1` [Compound 6], the IC50 turned out to be 1120 nM at PDE4B1 (S133D) and 766 nM in data set [5]. Moreover, the “SUV, brain uptake in mice” value in data set [3] came out at 1.76 SUV. Also, the off-target binding activity result in data set [6] was “did not reveal significant off-target binding activity”. This compound also returned a logD in data set [4] of 2.89.

For the compound `COc1ccc(C2CNC(=O)C2)cc1OC1CCCC1` (centres unmarked) [rolipram], the “PDE4D target occupancy (Lassen plot)” value was 63% in the data set on PDE4D [2] (radioligand [11C]T1650, blocking dose 0.2 mg/kg i.v.); 93% in the data set on PDE4D [2] (radioligand [11C]T1650, blocking dose 1.0 mg/kg i.v.); 79% with PDE4D [2] (radioligand [11C]T1660, rolipram 1.0 mg/kg i.v.).
